Assay results from patent US8309546B2, “Morpholinopurine derivatives” (Daiichi Sankyo Company, Limited, priority 2008, dated 2012).
Several values for one entry are separate records, joined by “and”; a condition that tells them apart may be missing. Identical values can stand only once.

Experiments:
[1] = molecular target: T1, human mTOR (His-tagged mTOR (1362C)) (Homo sapiens, UniProt P42345); experiment: mTOR kinase activity inhibition assay; format: biochemical; conditions: HTRF, read-out: IC50 against mTOR
T1 construct: the 1362 to 2549 amino acid portion on the C terminus side of human mTOR; His tag (N); made in house
Protocol: The mTOR kinase activity was determined in the presence and absence of a test compound. A substrate peptide is phosphorylated by mTOR kinase activity. A complex of streptavidin-XL665 and anti-phosphorylated S6K (Thr389) antibody-anti-mouse IgG-cryptate binds to this phosphorylated peptide. At this time, irradiation of excitation light induces transfer of fluorescence resonance energy from the excited cryptate to XL665, emitting fluorescence at 665 nm. Utilizing this principle, mTOR kinase activity was detected. When the mTOR inhibitor is present, phosphorylation of a substrate peptide is inhibited, and the biding of the above-mentioned complex to the substrate peptide is inhibited.
A His tag was introduced into the N terminus end of the 1362 to 2549 amino acid portion on the C terminus side of human mTOR, and a cell line was prepared, so that His-tagged mTOR should be constantly expressed in a HEK293 cell. A cell lysate was prepared from this HEK293 cell which constantly expressed His-tagged mTOR (1362C), and a crude product of His-tagged mTOR (1362C) was obtained by a usual method utilizing His tag.
Subsequently, an mTOR enzyme solution was prepared which contained the above-mentioned His-tagged mTOR (1362C) enzyme and 8 μg/ml biotinylated peptide (Biotin-Ahx-[…]-amide [Sigma]), as well as 50 mM HEPES (pH 7.5), 20 mM MnCl2, 1 mg/ml BSA, a suitable amount of protease inhibitor cocktail (Complete EDTA free, Roche Ltd.), 100 ng/ml calyculin A, and 4 μg/ml cantharidin as other components.
The test compound was dissolved in dimethyl sulfoxide (DMSO) and serially diluted with 20 μm ATP solution (50 mM HEPES (pH 7.5), 20 μM ATP) to obtain concentrations required for the assay. 5 μl of this compound solution was added to each well of a 384-well small volume white plate manufactured by Greiner Bio-One Co., Ltd.
5 μl of the mTOR enzyme solution was added to the above-mentioned well containing the test compound and the resulting mixture was left standing for 3 hours room temperature to proceed an enzymatic reaction.
The same procedure was performed using a solution obtained by dissolving DMSO in 20 μM ATP solution as a positive control and a solution obtained by dissolving DMSO in 50 mM HEPES buffer (pH 7.5) as a negative control.
After the enzymatic reaction, 5 μl each of an europium solution (a solution obtained by dissolving anti-mouse IgG-cryptate [SCETI Medical Labo K.K.] and anti-phosphorylation S6K [Thr389] antibody [Cell Signaling Technology Inc.] in 50 mM HEPES [pH 7.5], 100 mM EDTA, and 1.5 mg/ml BSA) and an XL665 solution (a solution obtained by dissolving Streptavidin-XL 665 [SCETI Medical Labo K.K.] in 50 mM HEPES [pH 7.5], 100 mM EDTA, 0.8 M KF, and 1.5 mg/ml BSA) were added in this order and mixed and the resulting mixture was left standing overnight at 4° C. On the following day, the mixture was returned to room temperature and then irradiated with 337-nm excitation light and fluorescence at 620 and 665 nm was measured with RUBYstar (BMG LABTECH JAPAN Ltd.).
mTOR inhibitory activity (%) was calculated using the ratio calculated from the measured values as an indicator of enzyme activity. Here, the ratio was calculated by the following formula (1). Ratio=10,000×fluorescence at 665 nm/fluorescence at 620 nm (1)
mTOR enzyme inhibitory activity (%) was calculated by the following formula (2). mTOR enzyme inhibitory activity (%)=100×[(P−S)/(P−N)] (2) P: Ratio in positive control well N: Ratio in negative control well S: Ratio in well containing the test compound
Furthermore, an optimal curve was created using the concentrations of the serially diluted test compound solutions and mTOR enzyme inhibitory activity (%) at each concentration to obtain the concentration showing 50% inhibition as the IC50 value of mTOR enzyme inhibitory activity.

PI3Kα = PI3Kα (Homo sapiens, UniProt P42336); experiment: PI3K kinase activity inhibition assay; format: biochemical; conditions: Kinase-Glo Plus ATP detection, read-out: IC50 against PI3K
Protocol: PI3Kα kinase activity was determined in the presence and absence of a test compound. The test compound was dissolved in DMSO and diluted serially with an ATP solution (30 μm ATP, 50 mM HEPES, pH 7.4, 50 mM NaCl, 0.05% CHAPS, 10 mM MgCl2, and 5 mM dithiothreitol [DTT]). First, 7 μl each of the serially diluted test compound solutions was added to each well of a black 384-well plate. Subsequently, 7 μl of a phosphatidylinositol 4,5-bisphosphate (PIP2) solution (45 μm PIP2, 50 mM HEPES, pH 7.4, 50 mM NaCl, 0.05% CHAPS, 10 mM MgCl2, and 5 mM DTT) was added to each well of the 384-well plate. Finally, 7 μl of a solution containing PI3Kα (50 nM PI3Kα, 50 mM HEPES, pH 7.4, 50 mM NaCl, 0.05% CHAPS, 10 mM MgCl2, and 5 mM DTT) was added to each well of the 384-well plate to initiate a reaction. The mixture was reacted at room temperature for 2 hours and then 21 μl of the Kinase-Glo Plusreagent (Promega) was, added to each well of the 384-well plate to terminate the reaction. After the termination of the reaction, the solution was left standing for 15 minutes and then luminescence was measured with ARVO (PerkinElmer Co., Ltd.) to detect ATP remaining in the reaction solution.
The amount of ATP consumed in the reaction was obtained for each well and used as an indicator of PI3Kαkinase activity. The PI3Kα kinase activity in wells not containing the test compound was calculated by the following formula (1). Furthermore, the PI3Kα kinase activity in wells containing the test compound was calculated by the following formula (2). The PI3Kα inhibitory activity (%) of the test compound was calculated by the following formula (3). PI3Kα kinase activity in wells not containing the test compound=B−C (1) PI3Kα kinase activity in wells containing the test compound=B−P (2) PI3Kα inhibitory activity (%) of test compound=100−100×[(B−P)/(B−C)] (3) B: Measured value in wells not containing PI3Kα or the test compound C: Measured value in wells containing PI3Kα and not containing the test compound P: Measured value in wells containing PI3Kα and the test compound
Furthermore, an optimal curve was calculated with Graph Pad Prism 4 using concentrations of the serially diluted test compound solutions and PI3Kα inhibitory activity (%) at each concentration to obtain the concentration showing 50% inhibition as the IC50 value of PI3Kα inhibitory activity.

[2] = tested on: human endometrial cancer cell strain AN3CA; experiment: Cell growth inhibition test (MTT), AN3CA; format: cell-based; conditions: AN3-CA, 72 h, 3 days culture, read-out: concentration exhibiting anti-cell effect (GI50)
Protocol: (§1) After a cultured cancer cell strain was treated with a test compound for a predetermined period, a cell growth inhibition test was performed by measuring the living cell count by the 3-(4,5-dimethylthiazol-2-yl)-2,5-diphenyltetrazoliumbromide (MTT) method.
(§2) Human endometrial cancer cell strain AN3CA, human ovary cancer cell strain IGROV1, and human colon cancer cell strain HT29 were seeded in a 96-well plate at 5000, 1000, and 5000 cells, respectively, per well. On the following day of seeding, a test compound having a predetermined concentration was added and the culture was continued at 37° C. in 5% CO2 for 3 days. On the final day of culture, an MTT reaction solution was added and the resulting mixture was reacted for 4 hours to form formazan by dehydrogenases contained in living cells. Subsequently, the culture broth was removed, DMSO was added to solubilize formazan, and the amount of produced formazan was determined by measuring absorbance at 540 nm using a microplate reader.
(§3) Since correlations of the amount of produced formazan and the living cell count had been confirmed, the cell growth rate was calculated by the following formula. Cell growth rate (T/C %) after addition of test compound=100×[(B−C)/(A−C)] A: Absorbance of well not containing test compound (final culture day) B: Absorbance of well containing test compound (final culture day) C: Absorbance of well immediately before addition of test compound (following day of cell seeding)
(§4) Furthermore, the cell growth rate at each concentration of serially diluted test compound solutions was obtained, and the concentration of the test compound resulting in a 50% growth rate was obtained as the GI50 value from two concentrations including 50% therebetween and the growth rates were selected.

[3] = tested on: human ovary cancer cell strain IGROV1; experiment: Cell growth inhibition test (MTT), IGROV1; format: cell-based; conditions: IGROV-1, 72 h, IGROV1, 3 days culture, read-out: concentration exhibiting anti-cell effect (GI50)
Protocol: as §1, §2, §3, §4

[4] = tested on: human colon cancer cell strain HT29; experiment: Cell growth inhibition test (MTT), HT29; format: cell-based; conditions: HT-29, 72 h, HT29, 3 days culture, read-out: concentration exhibiting anti-cell effect (GI50)
Protocol: as §1, §2, §3, §4

Chain of PI3Kα (P42336 whole entry, species assumed): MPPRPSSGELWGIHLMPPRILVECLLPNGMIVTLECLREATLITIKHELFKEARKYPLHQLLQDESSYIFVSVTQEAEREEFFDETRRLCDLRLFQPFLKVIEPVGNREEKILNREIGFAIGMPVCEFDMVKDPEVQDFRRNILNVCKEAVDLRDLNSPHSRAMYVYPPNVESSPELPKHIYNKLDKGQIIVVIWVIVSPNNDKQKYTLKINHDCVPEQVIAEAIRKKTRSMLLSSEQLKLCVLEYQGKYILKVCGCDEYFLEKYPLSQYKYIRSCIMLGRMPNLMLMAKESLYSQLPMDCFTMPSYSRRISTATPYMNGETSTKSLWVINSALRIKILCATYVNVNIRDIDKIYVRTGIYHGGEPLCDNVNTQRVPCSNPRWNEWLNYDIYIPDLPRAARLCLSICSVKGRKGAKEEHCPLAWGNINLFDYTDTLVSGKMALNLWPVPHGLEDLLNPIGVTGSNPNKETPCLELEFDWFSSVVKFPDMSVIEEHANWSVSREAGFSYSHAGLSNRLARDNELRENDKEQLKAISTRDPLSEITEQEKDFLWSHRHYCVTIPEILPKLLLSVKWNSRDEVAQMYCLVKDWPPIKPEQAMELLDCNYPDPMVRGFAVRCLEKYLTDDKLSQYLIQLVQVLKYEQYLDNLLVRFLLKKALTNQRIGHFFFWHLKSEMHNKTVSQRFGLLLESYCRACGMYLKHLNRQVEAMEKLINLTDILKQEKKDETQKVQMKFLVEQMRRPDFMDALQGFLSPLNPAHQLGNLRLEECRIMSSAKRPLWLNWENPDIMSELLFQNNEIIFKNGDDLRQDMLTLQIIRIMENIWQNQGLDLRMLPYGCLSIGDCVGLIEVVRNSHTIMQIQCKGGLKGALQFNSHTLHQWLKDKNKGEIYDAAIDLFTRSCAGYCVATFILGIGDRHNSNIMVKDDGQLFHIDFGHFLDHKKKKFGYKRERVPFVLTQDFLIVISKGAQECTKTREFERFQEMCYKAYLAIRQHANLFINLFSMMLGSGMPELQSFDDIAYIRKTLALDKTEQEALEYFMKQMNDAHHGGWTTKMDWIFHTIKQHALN
Chain of PI3Kα (P27986 whole entry partner, species assumed): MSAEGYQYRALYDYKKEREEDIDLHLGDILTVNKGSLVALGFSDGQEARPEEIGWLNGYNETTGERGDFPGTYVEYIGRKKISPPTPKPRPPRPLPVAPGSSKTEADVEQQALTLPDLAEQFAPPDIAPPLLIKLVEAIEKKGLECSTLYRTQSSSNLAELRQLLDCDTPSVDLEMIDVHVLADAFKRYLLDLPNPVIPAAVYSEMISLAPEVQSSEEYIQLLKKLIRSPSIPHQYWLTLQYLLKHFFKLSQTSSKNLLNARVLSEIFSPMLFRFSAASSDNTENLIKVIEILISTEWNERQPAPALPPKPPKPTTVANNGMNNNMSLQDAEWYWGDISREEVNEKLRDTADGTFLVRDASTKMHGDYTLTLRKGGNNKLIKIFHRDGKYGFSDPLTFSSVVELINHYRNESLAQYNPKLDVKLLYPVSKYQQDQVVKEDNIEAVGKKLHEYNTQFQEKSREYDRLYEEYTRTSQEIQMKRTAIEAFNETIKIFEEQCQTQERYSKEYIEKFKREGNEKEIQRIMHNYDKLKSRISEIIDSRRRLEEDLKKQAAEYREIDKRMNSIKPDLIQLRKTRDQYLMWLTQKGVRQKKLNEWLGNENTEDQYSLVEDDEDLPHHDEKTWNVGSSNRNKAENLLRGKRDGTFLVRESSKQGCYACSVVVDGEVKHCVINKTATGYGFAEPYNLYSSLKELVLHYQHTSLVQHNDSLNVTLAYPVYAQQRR
T1 sequence (P42345 1362-2549): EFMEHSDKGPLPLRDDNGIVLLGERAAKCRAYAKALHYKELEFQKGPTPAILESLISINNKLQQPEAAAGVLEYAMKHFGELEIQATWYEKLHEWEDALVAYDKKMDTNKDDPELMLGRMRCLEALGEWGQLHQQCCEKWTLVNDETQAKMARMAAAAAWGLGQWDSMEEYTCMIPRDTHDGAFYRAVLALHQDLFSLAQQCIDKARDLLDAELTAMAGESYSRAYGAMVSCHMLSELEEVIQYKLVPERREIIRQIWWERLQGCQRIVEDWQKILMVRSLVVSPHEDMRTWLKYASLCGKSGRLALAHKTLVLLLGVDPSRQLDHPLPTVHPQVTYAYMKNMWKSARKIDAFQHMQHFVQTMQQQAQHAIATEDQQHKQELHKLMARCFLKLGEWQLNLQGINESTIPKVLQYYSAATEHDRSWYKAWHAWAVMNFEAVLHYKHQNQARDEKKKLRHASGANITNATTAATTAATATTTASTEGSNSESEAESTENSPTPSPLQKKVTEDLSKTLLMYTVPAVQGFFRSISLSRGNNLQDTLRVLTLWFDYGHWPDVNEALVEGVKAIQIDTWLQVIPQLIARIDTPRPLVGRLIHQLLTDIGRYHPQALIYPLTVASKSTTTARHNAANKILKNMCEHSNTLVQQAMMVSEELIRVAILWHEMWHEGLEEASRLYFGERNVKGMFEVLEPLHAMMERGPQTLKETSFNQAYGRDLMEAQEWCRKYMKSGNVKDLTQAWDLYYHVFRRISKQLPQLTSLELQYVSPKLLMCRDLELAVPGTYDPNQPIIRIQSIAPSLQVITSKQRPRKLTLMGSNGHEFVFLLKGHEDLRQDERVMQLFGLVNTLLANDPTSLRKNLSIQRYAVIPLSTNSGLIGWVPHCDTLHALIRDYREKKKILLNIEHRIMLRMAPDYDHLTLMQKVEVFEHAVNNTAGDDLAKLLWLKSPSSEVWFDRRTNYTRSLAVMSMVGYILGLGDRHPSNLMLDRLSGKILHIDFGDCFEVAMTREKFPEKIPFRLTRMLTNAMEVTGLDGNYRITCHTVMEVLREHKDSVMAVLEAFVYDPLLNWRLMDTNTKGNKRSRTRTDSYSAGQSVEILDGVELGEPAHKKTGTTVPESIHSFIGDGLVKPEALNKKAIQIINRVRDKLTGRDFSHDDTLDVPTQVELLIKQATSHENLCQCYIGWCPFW

Row | IC50 [1] | IC50 (PI3Kα) | GI50 [2] | GI50 [3] | GI50 [4] | Compound
1 | 10 to 30 nM | < 10 nM | ≤ 5 µM | ≤ 5 µM | ≤ 5 µM | C[C@@H]1CN(c2nc3c(N4CCOCC4)nc(-c4cnc(N)nc4)nc3n2CC2CC2)CCN1 [Example 94, 5-{9-(Cyclopropylmethyl)-8-[(3R)-3-methylpiperazin-1-yl]-6-morpholin-4-yl-9H-purin-2-yl}pyrimidin-2-amine]
2 | 10 to 30 nM | 10 to 20 nM and 20 to 50 nM | ≤ 5 µM | ≤ 5 µM | ≤ 5 µM | CS(=O)(=O)N1CCN(c2nc3c(N4CCOCC4)nc(-c4cnc(N)nc4)nc3n2CC2CCOC2)CC1 (stereo not shown) [Example 5, 5-{8-[4-(Methylsulfonyl)piperazin-1-yl]-6-morpholin-4′-yl-9-(tetrahydrofuran-3-ylmethyl)-9H-purin-2-yl}pyrimidin-2-amine]
3 | ≥ 500 nM | 20 to 50 nM | ≤ 5 µM | ≤ 5 µM | ≤ 5 µM | Cc1nc(N)ncc1-c1nc(N2CCOCC2)c2nc(N3CCC(N(C)C)C3)n(CC3CC3)c2n1 (stereo not shown) [Example 33, 5-{9-(Cyclopropylmethyl)-8-[3-(dimethylamino)pyrrolidin-1-yl]-6-morpholin-4-yl-9H-purin-2-yl}-4-methylpyrimidin-2-amine]
4 | 30 to 100 nM | < 10 nM | ≤ 5 µM | ≤ 5 µM | ≤ 5 µM | Nc1ncc(-c2nc(N3CCOCC3)c3nc(N4CCC(S(=O)(=O)c5ccccc5)C4)n(CC4CC4)c3n2)cn1 (stereo not shown) [Example 31, 5-{9-(Cyclopropylmethyl)-6-morpholin-4-yl-8-[3-(phenylsulfonyl)pyrrolidin-1-yl]-9H-purin-2-yl}pyrimidin-2-amine]
5 | 100 to 500 nM | 10 to 20 nM | ≤ 5 µM | ≤ 5 µM | ≤ 5 µM | CN(C)CC(=O)N1CCN(c2nc3c(N4CCOCC4)nc(-c4cnc(N)nc4)nc3n2CC2CC2)CC1 [Example 40, 5-[9-(Cyclopropylmethyl)-8-{4-[(dimethylamino)acetyl]piperazin-1-yl}-6-morpholin-4-yl-9H-purin-2-yl]pyrimidin-2-amine]
6 | < 10 nM | 10 to 20 nM | ≤ 5 µM | ≤ 5 µM | ≤ 5 µM | CC1(C)CN(c2nc3c(N4CCOCC4)nc(-c4cnc(N)nc4)nc3n2CC(F)(F)F)CCN1C(=O)CO [Example 123]
7 | 100 to 500 nM | 10 to 20 nM | ≤ 5 µM | ≤ 5 µM | ≤ 5 µM | Nc1ncc(-c2nc(N3CCOCC3)c3nc(NCCN4CCOCC4)n(CC4CC4)c3n2)cn1 [Example 29, 2-(2-Aminopyrimidin-5-yl)-9-(cyclopropylmethyl)-6-morpholin-4-yl-N-(2-morpholin-4-ylethyl)-9H-purin-8-amine]
8 | 30 to 100 nM | 10 to 20 nM | ≤ 5 µM | ≤ 5 µM | ≤ 5 µM | Nc1ncc(-c2nc(N3CCOCC3)c3nc(N4CCNCC4)n(CC4CC4)c3n2)cn1 [Example 19, 5-[9-(Cyclopropylmethyl)-6-morpholin-4-yl-8-piperazin-1-yl-9H-purin-2-yl]pyrimidin-2-amine]
9 | < 10 nM | < 10 nM | ≤ 5 µM | ≤ 5 µM | ≤ 5 µM | C[C@@H]1CN(c2nc3c(N4CCOCC4)nc(-c4cnc(N)nc4)nc3n2CC(F)(F)F)C[C@H](C)N1C(=O)CO [Example 120]
10 | 100 to 500 nM | 20 to 50 nM | ≤ 5 µM | ≤ 5 µM | ≤ 5 µM | C[C@@H]1CN(c2nc3c(N4CCOCC4)nc(-c4cnc(N)nc4)nc3n2CC2CCOC2)C[C@H](C)N1 (stereo partly drawn) [Example 17, 5-[8-(cis-3,5-Dimethylpiperazin-1-yl)-6-morpholin-4-yl-9-(tetrahydrofuran-3-ylmethyl)-9H-purin-2-yl]pyrimidin-2-amine]
11 | 100 to 500 nM | 20 to 50 nM | ≤ 5 µM | ≤ 5 µM | ≤ 5 µM | C[C@@H]1CN(c2nc3c(N4CCOCC4)nc(-c4cnc(N)nc4)nc3n2[C@H]2CCN(S(C)(=O)=O)C2)C[C@H](C)N1 [Example 26, 5-{8-(cis-3,5-Dimethylpiperazin-1-yl)-9-[(3S)-1-(methylsulfonyl)pyrrolidin-3-yl]-6-morpholin-4-yl-9H-purin-2-yl}pyrimidin-2-amine]
